Counter-ions that a name gives are not always drawn. Like-named read-outs stand apart in the source and are kept apart here.
Tested on: GH3-TRE-Luc cell line
Settings: read-out: AC50 (uM) modified / 1000, viability, 1 nM T3 present, 24 h

C[C@@H]1C[C@@H]([C@H](O)CC2CC(=O)NC(=O)C2)C(=O)[C@@H](C)C1 [Cycloheximide]
CC50 (Tox21_110001=Tox21_113580): 0.256 µM
CC50 (Tox21_110001=Tox21_201158): 0.0922 µM
CC50 (Tox21_110001=Tox21_303652): 1.49 µM

CN(C)CCOc1ccccc1Cc1ccccc1 [Phenyltoloxamine citrate]
CC50 (Tox21_110001=Tox21_110862): 9.16 µM

CCCCCCCCCC[N+](C)(C)CCCCCCCCCC [Didecyldimethylammonium bromide]
CC50 (Tox21_110001=Tox21_112302): 6.15 µM

CCCCCCCCCCCCn1cc[n+](C)c1 [1-Dodecyl-3-methylimidazolium hexafluorophosphate]
CC50 (Tox21_110001=Tox21_200596): 4.11 µM

CCCCC(CC)COC(=O)CC(C(=O)OCC(CC)CCCC)S(=O)(=O)O (centres unmarked) [Docusate sodium]
CC50 (Tox21_110001=Tox21_112087): 34.4 µM
CC50 (Tox21_110001=Tox21_113469): 18.8 µM
CC50 (Tox21_110001=Tox21_201342): 64.9 µM
CC50 (Tox21_110001=Tox21_300496): 57.2 µM

CCCCCCCCCCCCn1cc[n+](C)c1 [1-Dodecyl-3-methylimidazolium trifluoromethanesulfonate]
CC50 (Tox21_110001=Tox21_202630): 3.74 µM

CC(C)(C)NC(=O)[C@@H]1C[C@@H]2CCCC[C@@H]2CN1C[C@@H](O)[C@H](Cc1ccccc1)NC(=O)[C@H](CC(N)=O)NC(=O)c1ccc2ccccc2n1 [Saquinavir mesylate]
CC50 (Tox21_110001=Tox21_111137): 9.01 µM
CC50 (Tox21_110001=Tox21_202533): 27.8 µM

CCCSc1ccc2nc(NC(=O)OC)[nH]c2c1 [Albendazole]
CC50 (Tox21_110001=Tox21_110659): 0.271 µM

NNc1nncc2ccccc12 [Hydralazine hydrochloride]
CC50 (Tox21_110001=Tox21_302496): 73.4 µM

CN(Cc1cnc2nc(N)nc(N)c2n1)c1ccc(C(=O)N[C@@H](CCC(=O)O)C(=O)O)cc1 [Methotrexate]
CC50 (Tox21_110001=Tox21_300269): 0.164 µM

O=c1c(O)c(-c2ccc(O)c(O)c2)oc2cc(O)cc(O)c12 [Quercetin]
CC50 (Tox21_110001=Tox21_202308): 40.5 µM
CC50 (Tox21_110001=Tox21_300285): 77.2 µM

Cc1cc(-c2ccc(/N=N/c3ccc4c(S(=O)(=O)O)cc(S(=O)(=O)O)c(N)c4c3O)c(C)c2)ccc1/N=N/c1ccc2c(S(=O)(=O)O)cc(S(=O)(=O)O)c(N)c2c1O [C.I. Direct Blue 53]
CC50 (Tox21_110001=Tox21_113237): 21.8 µM

Cc1c(N)nc([C@H](CC(N)=O)NC[C@H](N)C(N)=O)nc1C(=O)N[C@H](C(=O)N[C@H](C)[C@@H](O)[C@H](C)C(=O)N[C@H](C(=O)NCCc1nc(-c2nc(C(=O)NCCC[S+](C)C)cs2)cs1)[C@@H](C)O)[C@@H](O[C@@H]1O[C@@H](CO)[C@@H](O)[C@H](O)[C@@H]1O[C@H]1O[C@H](CO)[C@@H](O)[C@H](OC(N)=O)[C@@H]1O)c1c[nH]cn1 [Bleomycin sulfate]
CC50 (Tox21_110001=Tox21_113599): 1.85 µM

CC[C@]1(O)C[C@@H]2CN(CCc3c([nH]c4ccccc34)[C@@](C(=O)OC)(c3cc4c(cc3OC)N(C)[C@H]3[C@@](O)(C(=O)OC)[C@H](OC(C)=O)[C@]5(CC)C=CCN6CC[C@]43[C@@H]65)C2)C1 [Vinblastine sulfate]
CC50 (Tox21_110001=Tox21_111498): 0.185 µM
CC50 (Tox21_110001=Tox21_112735): 2.29 µM

Oc1c(Cl)cc(Cl)cc1Sc1cc(Cl)cc(Cl)c1O [Bithionol]
CC50 (Tox21_110001=Tox21_110832): 12.4 µM
CC50 (Tox21_110001=Tox21_200384): 6.76 µM
CC50 (Tox21_110001=Tox21_302919): 20.3 µM

CCCCCCCCCCn1cc[n+](C)c1 [1-Decyl-3-methylimidazolium tetrafluoroborate]
CC50 (Tox21_110001=Tox21_200592): 13.1 µM

COC(=O)[C@H]1[C@H]2C[C@@H]3c4[nH]c5ccccc5c4CCN3C[C@H]2C[C@@H](OC(=O)c2cc(OC)c(OC)c(OC)c2)[C@@H]1OC [Deserpidine]
CC50 (Tox21_110001=Tox21_112646): 1.94 µM
CC50 (Tox21_110001=Tox21_113102): 27.7 µM

O=C1OC2(c3ccccc31)c1cc(I)c(O)c(I)c1Oc1c2cc(I)c(O)c1I [FD&C Red 3]
CC50 (Tox21_110001=Tox21_202932): 18.4 µM
CC50 (Tox21_110001=Tox21_302085): 23.6 µM

Clc1ccc2c(c1)C(N1CCNCC1)=Nc1ccccc1O2 [Amoxapine]
CC50 (Tox21_110001=Tox21_302352): 20.3 µM

CC(=O)N1CCN(c2ccc(OC[C@@H]3CO[C@@](Cn4ccnc4)(c4ccc(Cl)cc4Cl)O3)cc2)CC1 (racemic) [Ketoconazole]
CC50 (Tox21_110001=Tox21_300267): 23.7 µM

C=C[C@H]1C[N@@]2CC[C@H]1C[C@H]2[C@H](O)c1ccnc2ccc(OC)cc12 [Quinine]
CC50 (Tox21_110001=Tox21_112389): 42.9 µM

C=C[C@H]1C[N@@]2CC[C@H]1C[C@H]2[C@H](O)c1ccnc2ccc(OC)cc12 [Quinine hydrochloride dihydrate]
CC50 (Tox21_110001=Tox21_303565): 50.6 µM

CCCCCCCC[n+]1ccn(C)c1 [1-Methyl-3-octylimidazolium trifluoromethanesulfonate]
CC50 (Tox21_110001=Tox21_200708): 75.9 µM

CCc1nn(CCCN2CCN(c3cccc(Cl)c3)CC2)c(=O)n1CCOc1ccccc1 [Nefazodone hydrochloride]
CC50 (Tox21_110001=Tox21_111735): 9.43 µM
CC50 (Tox21_110001=Tox21_113574): 23.6 µM

c1cnc2c(c1)ccc1cccnc12 [1,10-Phenanthroline]
CC50 (Tox21_110001=Tox21_201998): 46.4 µM
CC50 (Tox21_110001=Tox21_303111): 66.2 µM

COc1cc([C@@H]2c3cc4c(cc3[C@@H](O[C@@H]3O[C@@H]5CO[C@@H](C)O[C@H]5[C@H](O)[C@H]3O)[C@H]3COC(=O)[C@H]23)OCO4)cc(OC)c1O [Etoposide]
CC50 (Tox21_110001=Tox21_110630): 6.45 µM
CC50 (Tox21_110001=Tox21_302201): 2.85 µM

CC(=C(CCO)SSCC1CCCO1)N(C=O)Cc1cnc(C)nc1N (stereo in doubt) [Fursultiamine]
CC50 (Tox21_110001=Tox21_112989): 34.7 µM

CN(C)CCOc1ccccc1Cc1ccccc1 [Phentoloxamine PAS]
CC50 (Tox21_110001=Tox21_113232): 25.5 µM

C#C[C@]1(O)CC[C@H]2[C@@H]3CCC4=CC(=O)CC[C@@H]4[C@H]3CC[C@@]21CC (racemic) [dl-Norgestrel]
CC50 (Tox21_110001=Tox21_303623): 64.5 µM

COC(=O)Nc1nc2ccccc2[nH]1 [Carbendazim]
CC50 (Tox21_110001=Tox21_300478): 11.4 µM

CC1=CC(=C(c2ccc(N)cc2)c2ccc(N)cc2)C=CC1=N [C.I. Basic Violet 14]
CC50 (Tox21_110001=Tox21_112288): 15.1 µM
CC50 (Tox21_110001=Tox21_202790): 5.54 µM
